{"source": "paper PMC2009935", "about": "“Biological activities of dihydrodiols derived from two polycyclic hydrocarbons in rodent test systems” (British Journal of Cancer, 1979)", "key": {"mouse skin [1]": {"system": "mouse skin"}, "mouse skin [2]": {"system": "mouse skin", "conditions": "total doses 75-150 ug in 3 applications"}, "Wistar rats": {"system": "Wistar rats", "experiment": "Induction of sarcomas after s.c. injection into Wistar rats"}, "mouse skin [3]": {"system": "mouse skin", "experiment": "Short-term test on mouse skin: suppression of sebaceous glands"}, "[4]": {"conditions": "single dose 25 ug, TPA promotion"}, "[5]": {"conditions": "female Wistar rats, single s.c. injection 0.9 mg in olive oil, up to 9 months"}}}
{"smiles": "Cc1c2ccccc2cc2c3c(ccc12)C=C[C@@H](O)[C@@H]3O", "note": "(relative stereo) [1,2-dihydrodiol, trans-1,2-Dihydro-1,2-dihydroxy-7-methylbenz[a]anthracene]", "values": [{"measurement": "tumour development in the initiated mice (in words)", "setting": "mouse skin [1]; [4]", "value": "only really increased after the amount of TPA applied had been doubled"}]}
{"smiles": "O[C@H]1C=Cc2c(cc3ccc4cccc5ccc2c3c45)[C@@H]1O", "note": "(relative stereo) [trans-7,8-Dihydro-7,8-dihydroxy-BP, trans-7,8-Dihydro-7,8-dihydroxybenzo[a]pyrene]", "values": [{"measurement": "induction of hyperplasia in mouse skin (in words)", "setting": "mouse skin [2]", "value": "some activity as a hyperplastic agent"}, {"measurement": "sarcomas induced in the group of rats", "setting": "Wistar rats; [5]", "value": "one"}, {"measurement": "activity as s.c. carcinogen in rats (in words)", "setting": "Wistar rats; single s.c. injection 0.9 mg in olive oil", "value": "very much less active than benzo[a]pyrene as an s.c. carcinogen in rats"}, {"measurement": "suppression of sebaceous glands in mouse skin (in words)", "setting": "mouse skin [3]; total doses 75-150 ug in 3 applications", "value": "some activity"}]}
{"smiles": "Cc1c2c(cc3c1ccc1ccccc13)C=C[C@@H](O)[C@@H]2O", "note": "(relative stereo) [8,9-dihydrodiol, trans-8,9-dihydro-8,9-dihydroxy-7-methylbenz[a]anthracene]", "values": [{"measurement": "tumour development in the initiated mice (in words)", "setting": "mouse skin [1]; [4]", "value": "only really increased after the amount of TPA applied had been doubled"}]}
{"smiles": "Cc1c2ccccc2cc2c1ccc1ccccc12", "note": "[7-methylbenz[a]anthracene, reference compound]", "values": [{"measurement": "tumour-initiating activity on mouse skin (in words)", "setting": "mouse skin [1]; female CDI mice, single dose 25 ug in acetone on dorsal skin, TPA thrice weekly for 52 weeks", "value": "more active than the related 1,2-, 5,6- and 8,9-dihydrodiols"}, {"measurement": "skin-tumour incidence plateau, first or only, time after initiation", "setting": "mouse skin [1]; [4]", "value": "> 40", "unit": "weeks"}]}
{"smiles": "c1ccc2c(c1)cc1ccc3cccc4ccc2c1c34", "note": "[BP, benzo[a]pyrene, reference compound]", "values": [{"measurement": "No. with sarcomas", "setting": "Wistar rats; Table III, female Wistar rats, single s.c. injection 0.9 mg in 0.5 ml olive oil, up to 9 months, 30 animals", "value": 24}, {"measurement": "sarcomas induced in the group of rats", "setting": "Wistar rats; [5]", "value": "24/30"}, {"measurement": "Sebaceous glands, No. present", "setting": "mouse skin [3]; total dose 150.0 ug in 3 applications in acetone, 8 days after first treatment, 12 microscopic fields", "value": 0.0}]}
